In US20120277109A1, “PROXIMITY-MEDIATED ASSAYS FOR DETECTING ONCOGENIC FUSION PROTEINS” (Prometheus Laboratories Inc., priority 2009, published 2012):
Read-outs that look alike come from different tables or passages of the source.

How the values were obtained:
[1] = system: patients with chronic myelogenous leukemia (CML); conditions: cited from earlier work
[2] = system: BCR-ABL substrate CRKL; experiment: Sandwich ELISA of total and activated (phosphorylated) CRKL in cancer cell lines after growth factor treatment; format: cell-based, human
[3] = 400 mg/day imatinib, after 7 years

Cc1ccc(NC(=O)c2ccc(CN3CCN(C)CC3)cc2)cc1Nc1nccc(-c2cccnc2)n1 [imatinib]
complete cytogenetic response (CCyR) ([1]; 400 mg/day imatinib, % of patients): 70-80% | even free survival rate [1, 3]: 81% | overall survival rate [1, 3]: 90% | relapse rate ([1]; 400 mg/day imatinib, in 5 years): about 30% | loss of CCyR rate ([1]; 400 mg/day imatinib, in the first 3 years): 4 to 7 %/yr | loss of CCyR rate ([1]; 400 mg/day imatinib, thereafter (after first 3 years)): 1 to 2 %/yr | toxicity ([1]; 800 mg/day imatinib compared with 400 mg/day): more toxic | CCyR ([1]; 800 mg/day imatinib): 95% | relapse rate ([1]; 800 mg/day imatinib): 5% | patients who do not achieve durable complete cytogenetic responses ([1]; first line therapy, newly diagnosed patients with CML): 20-25%

Cc1cn(-c2cc(NC(=O)c3ccc(C)c(Nc4nccc(-c5cccnc5)n4)c3)cc(C(F)(F)F)c2)cn1 [nilotinib]
toxicity ([1]; nilotinib compared with imatinib): more toxic than imatinib

epidermal growth factor [EGF, stimulatory growth factor]
CRKL activation (i.e., phosphorylation) upon treatment ([2]; A431 cells): activated | CRKL activation (i.e., phosphorylation) upon treatment ([2]; T47D cells): not activated

heregulin
CRKL activation (i.e., phosphorylation) upon treatment ([2]; MCF-7 cells): activated (i.e., phosphorylated) at low levels | CRKL activation (i.e., phosphorylation) upon treatment ([2]; T47D cells): activated (i.e., phosphorylated) at low levels
